# Read-outs that look alike come from different tables or passages of the source.
# Tests used:
# [1] = biological target: T1, Sp1 (Homo sapiens, UniProt P08047); assay: Sp1 super gel shift EMSA with K562 cell nuclear extracts (specificity); assay type: biochemical; settings: specificity for CCHC versus CCHH zinc finger
# T1 construct: K562 cell nuclear extracts, and antibodies for Sp1 (Spl[PEP2]-G); host or cells: K562 cell nuclear extracts
# Experimental: To determine if compound 44, 45 or 47 binding activity was specific for CCHC zinc fingers, a super gel shift EMSA after treatment of K562 cell nuclear extracts with the compounds was performed. This was followed by super shifting with Spl-specific antibody. Spl was chosen because it is a cellular transcription factor that contains three copies of a classical type CCHH zinc finger motif that are required for Sp1 binding to its DNA target. […] Super gel shifting to determine the specificity of zinc finger reactive compounds was carried out using an Sp1 consensus oligomer (Stratagene, La Jolla, CA), K562 cell nuclear extracts, and antibodies for Sp1 (Spl[PEP2]-G) (extracts and Spl Abs from Santa Cruz Biotechnology, Inc., Santa Cruz, CA). The binding reactions of oligonucleotides with K562 nuclear extract, as well as electrophoretic conditions were carried out as described in the Gelshift Buffer Kit, Stratagene, La Jolla, CA.
# [2] = system: HIV-1RF; assay: XTT cytoprotection assay (antiviral activity); assay type: cell-based
# Description: One exemplary means to determine antiviral activity is with CEM-SS cells and virus (e.g., HIV-1RF) (MOI = 0.01) using the XTT (2,3-bis[2-methoxy- 4-nitro-5-sulfophenyl] -5- [(phenylamino)carbonyl]-2H-tetrazolium hydroxide) cytoprotection assay, as described by Rice (1993) PNAS 90:9721-9724, and Rice (1997) Antimicrob. Agents Chemother. 41:419-426. Briefly, cells are infected with HIV-1RF (or other virus to be tested) in the presence of various dilutions of test compounds (thiolesters and controls). The cultures are incubated for seven days. During this time control cultures without protective compounds (i.e., compounds with anti-viral activity) replicate virus, induce syncytia, and result in about 90% cell death. The cell death is measured by XTT dye reduction. XTT is a soluble tetrazolimn dye that measures mitochondrial energy output, similar to MTT. Positive controls using dextran sulfate (an attachment inhibitor) or 3'-Azido -2'-3'-dideoxythymidine, AZT (a reverse transcriptase inhibitor) are added to each assay. Individual assays are done in duplicate using a sister plate method.
# Effective antiviral concentrations providing 50% cytoprotection (EC50), and cellular growth inhibitory concentrations causing 50% cytotoxicity (IC50) are calculated.
# [3] = system: HIV-1 NL4-3; assay: Virucidal (viral inactivation) assay on MAGI-CCR-5 cells; assay type: cell-based
# Experimental: The cell-based p24 attachment assay was performed as described in Rice (1995) Science 270:1194-1197. Viral inactivation assays were carried out as described in Rice (1995) Science 270:1194-1197, and Turpin (1997) supra, with minor modifications. Briefly, MAGI-CCR-5 cells were plated (4 x 10^4 cells per well) in flat bottomed 2-cm well plates for 24 h, after which the culture media was removed and compound-treated virus was added. The virus used was obtained by transient transfection of pNL4-3 into HeLa cells yielding the replication competent NL4-3 virus. Virus containing supernatants were treated for 2 h at 37°C after which residual compound was removed by centrifugation (18,000 x g, 1h, 4°C). Virus pellets were resuspended and placed on the MAGI-CCR-5 monolayers and cultured for 48 h. Monolayers were fixed and stained with X-gal solution and blue cells counted.
# NCp7 cross-linking is associated with viral inactivation. Whether the ability to crosslink the nucleocapsid protein, as determined by Western blotting, correlated with the ability to inactivate the viruses was tested in a virucidal assay. Virus stocks of HIV-1 NL4-3 were incubated with various thiolester compounds. The virus was obtained by transient transfection of a replication-competent pNL4-3 plasmid into HeLa cells. Residual thiolester was removed by centrifugation. The virus pellet was resuspended in culture media and used to infect MAGI-CCR-5 cells. At 48 hours post-infection, the cells were washed and stained with X-Gal. Compounds 44 and 45 were virucidal with I50 (concentration resulting in 50% virus inactivation) values of 12.3 µM and 13.2 µM, respectively.
# [4] = Human immunodeficiency virus 1, NL43, MAGI-CCR5, read-out: Virucidal Activity (I50 µM)
# [5] = Human immunodeficiency virus 1, NL43, MAGI-CCR5, read-out: virucidal I50 (concentration resulting in 50% virus inactivation)
# [6] = Human immunodeficiency virus 1, Table 5, XTT cytoprotection assay, read-out: Antiviral Activity EC50
# [7] = Human immunodeficiency virus 1, Table 6, XTT cytoprotection assay, read-out: Antiviral Activity EC50%
# T1 sequence (P08047 whole entry): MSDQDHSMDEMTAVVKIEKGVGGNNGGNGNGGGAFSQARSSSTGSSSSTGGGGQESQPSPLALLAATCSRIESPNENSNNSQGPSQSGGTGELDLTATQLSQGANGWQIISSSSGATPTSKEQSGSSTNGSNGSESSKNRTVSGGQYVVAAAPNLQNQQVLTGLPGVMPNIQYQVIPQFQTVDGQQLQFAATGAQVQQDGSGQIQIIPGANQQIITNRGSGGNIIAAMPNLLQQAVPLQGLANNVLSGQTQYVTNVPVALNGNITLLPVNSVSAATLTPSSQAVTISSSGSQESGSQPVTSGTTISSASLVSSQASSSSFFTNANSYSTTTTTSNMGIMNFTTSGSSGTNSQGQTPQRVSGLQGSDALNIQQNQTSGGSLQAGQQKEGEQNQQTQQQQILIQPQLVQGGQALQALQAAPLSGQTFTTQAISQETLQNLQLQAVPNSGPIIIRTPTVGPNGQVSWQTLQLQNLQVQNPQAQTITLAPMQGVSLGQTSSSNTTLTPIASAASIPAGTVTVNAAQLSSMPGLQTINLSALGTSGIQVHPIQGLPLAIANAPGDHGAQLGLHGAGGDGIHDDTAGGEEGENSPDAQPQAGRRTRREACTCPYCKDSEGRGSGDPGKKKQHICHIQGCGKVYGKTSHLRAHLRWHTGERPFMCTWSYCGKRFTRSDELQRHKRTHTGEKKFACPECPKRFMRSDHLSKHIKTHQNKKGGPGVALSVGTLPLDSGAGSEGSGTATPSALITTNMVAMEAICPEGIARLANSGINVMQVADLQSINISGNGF
Structure (SMILES),effect on super shifting of Sp1 bound to its DNA target [1],"EC50 ([2]; Human immunodeficiency virus 1, read-out: Antiviral Activity EC50%) [µM]","IC50 [3, 4] [µM]","IC50 [3, 5] [µM]","EC50 ([2]; Human immunodeficiency virus 1, read-out: EC50 (concentration inhibiting 50% virus replication)) [µM]","EC50 [2, 6] [µM]","EC50 [2, 7] [µM]"
O=C(CCCC[n+]1ccccc1)Sc1ccccc1C(=O)Nc1ccc(S(=O)(=O)c2ccc([N+](=O)[O-])cc2)cc1 [Compound 47],failed to alter the pattern of super shifting,5.5,2.1,2.1,,,
"CC(=O)NS(=O)(=O)c1ccc(NC(=O)c2ccccc2SC(=O)CCCC[n+]2ccccc2)cc1 [Compound 45, N-[2-(5-pyridinio-valeroylthio)benzoyl]sulfacetamide bromide]",failed to alter the pattern of super shifting,,13.2,13.2,< 10,6.2,6.2
"CC(=O)NS(=O)(=O)c1ccc(NC(=O)c2ccccc2SC(=O)CCCCBr)cc1 [Compound 44, N-[2-(5-bromovaleroylthio)benzoyl]sulfacetamide]",failed to alter the pattern of super shifting,,12.3,12.3,,3.8,38
